# Activity calls are given as the source filed them. No cut-off for these calls is given here.
# Tests used:
# [1] = test system: Rattus norvegicus; assay: DOM appropriate response rate in % at 1.0 mg/kg where stimulus generalization occurred (5/5 no of animals); format: functional
# [2] = target: T1, 5-hydroxytryptamine receptor 1B (Rattus norvegicus, UniProt P28564); assay: Binding affinity against 5-HT1B serotonin receptor in rat striatum; format: tissue-based
# [3] = test system: Rattus norvegicus; assay: DOM appropriate response of animals/min at 1.0 mg/kg where stimulus generalization occurred (5/5 no of animals); format: functional
# [4] = target: T2, 5-hydroxytryptamine receptor 1A (Rattus norvegicus, UniProt P19327); assay: Binding affinity against 5-hydroxytryptamine 1A receptor in rat hippocampal tissue; format: tissue-based, Hippocampus
# T2 sequence (P19327 whole entry): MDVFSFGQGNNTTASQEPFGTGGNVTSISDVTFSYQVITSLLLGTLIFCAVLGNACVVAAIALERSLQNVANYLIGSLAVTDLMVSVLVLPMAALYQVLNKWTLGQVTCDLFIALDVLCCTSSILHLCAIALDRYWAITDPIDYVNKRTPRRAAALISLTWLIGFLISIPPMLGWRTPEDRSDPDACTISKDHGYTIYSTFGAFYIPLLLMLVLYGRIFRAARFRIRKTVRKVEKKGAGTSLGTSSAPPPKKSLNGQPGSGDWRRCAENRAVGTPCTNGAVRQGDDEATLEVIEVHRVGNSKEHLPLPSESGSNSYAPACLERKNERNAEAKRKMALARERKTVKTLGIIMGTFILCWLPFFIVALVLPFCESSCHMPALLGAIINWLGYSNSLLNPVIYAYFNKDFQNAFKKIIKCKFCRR
# [5] = test system: Rattus norvegicus; assay: 8-OH-DPAT appropriate response of animals/min rate in %0.2 mg/Kg where stimulus generalization occurred(7/7 no of animals); format: functional
# [6] = test system: Rattus norvegicus; assay: The dose at which the animals would show 50% response on 8-OH-DPAT appropriate lever at a dose 0.2 mg/kg (7/7 no of animals); format: functional
# [7] = target: T3, Serotonin 2 (5-HT2) receptor (Rattus norvegicus, UniProt P30994+P08909+P14842); assay: Binding affinity towards 5-hydroxytryptamine 2 receptor using [3H]- ketanserin as radioligand; format: protein assay
# [8] = test system: Rattus norvegicus; assay: 8-OH-DPAT appropriate response rate in % at 0.2 mg/kg where stimulus generalization occurred(7/7 no of animals); format: functional
# [9] = target: T3, Serotonin 2 (5-HT2) receptor; assay: Binding affinity towards 5-hydroxytryptamine 2 receptor using [3H]- 1-(4-bromo-2,5-dimethoxy-phenyl)-2-aminopropane (D) as radioligand; format: protein assay
# [10] = target: T1, 5-hydroxytryptamine receptor 1B; assay: Evaluated for binding affinity towards 5-hydroxytryptamine 1B receptor
# [11] = species on record: Rattus norvegicus; assay: The dose at which the animals show 50% responses on drug-appropriate lever; format: functional
# [12] = target: T2, 5-hydroxytryptamine receptor 1A; assay: Binding affinity towards 5-hydroxytryptamine 1A receptor
# [13] = test system: Rattus norvegicus; assay: 8-OH-DPAT appropriate response rate in % at 1.0 mg/kg where stimulus generalization occurred(4/5 no of animals); format: functional
# [14] = test system: Rattus norvegicus; assay: DOM appropriate response of animals/min rate in % at 5.0 mg/Kg where stimulus generalization occurred(4/5 no of animals); format: functional
# [15] = test system: Rattus norvegicus; assay: DOM appropriate response rate in % at 0.6 mg/Kg where stimulus generalization occurred(5/5 no of animals); format: functional
# [16] = species on record: Rattus norvegicus; assay: DOM appropriate response rate in % at […] where stimulus generalization occurred(5/5 no of animals); format: functional
# [17] = species on record: Rattus norvegicus; assay: 8-OH-DPAT appropriate response rate in % at […] where stimulus generalization occurred(2/5 no of animals); No responding; format: functional, organism-based; design: dose 1.2 mg/kg
# [18] = species on record: Rattus norvegicus; assay: DOM appropriate response of animals/min rate in % at […] where stimulus generalization occurred(5/5 no of animals); format: functional
# [19] = test system: Rattus norvegicus; assay: 8-OH-DPAT appropriate response rate in % at 0.9 mg/kg where stimulus generalization occurred (4/7 no of animals); format: functional
# [20] = test system: Rattus norvegicus; assay: 8-OH-DPAT appropriate response of animals/min rate in % 1.0 mg/kg where stimulus generalization occurred(4/5 no of animals); format: functional
# [21] = test system: Rattus norvegicus; assay: 8-OH-DPAT appropriate response of animals/min rate in % 1.1 mg/kg where stimulus generalization occurred(4/5 no of animals); format: functional
# [22] = test system: Rattus norvegicus; assay: DOM appropriate response rate in % at 6.0 mg/Kg where stimulus generalization occurred(3/5 no of animals); format: functional
# [23] = test system: Rattus norvegicus; assay: DOM appropriate response rate in % at 5.0 mg/Kg where stimulus generalization occurred(4/5 no of animals); format: functional
# [24] = test system: Rattus norvegicus; assay: DOM appropriate response of animals/min rate in % at 6.0 mg/Kg where stimulus generalization occurred(3/5 no of animals); format: functional
# [25] = test system: Rattus norvegicus; assay: 8-OH-DPAT appropriate response of animals/min rate in % 0.9 mg/kg where stimulus generalization occurred(4/7 no of animals); format: functional
# [26] = test system: Rattus norvegicus; assay: 8-OH-DPAT appropriate response of animals/min rate in % 0.4 mg/kg where stimulus generalization occurred(4/5 no of animals); format: functional
# [27] = test system: Rattus norvegicus; assay: DOM appropriate response rate in % at 2.0 mg/Kg where stimulus generalization occurred(4/5 no of animals); format: functional
# [28] = test system: Rattus norvegicus; assay: The dose at which the animals would show 50% responses on DOM appropriate lever at a dose 6.0 mg/kg; format: functional
# [29] = test system: Rattus norvegicus; assay: 8-OH-DPAT appropriate response rate in % at 1.1 mg/kg where stimulus generalization occurred(4/5 no of animals); format: functional
# [30] = test system: Rattus norvegicus; assay: DOM appropriate response of animals/min rate in % at 2.0 mg/kg where stimulus generalization occurred(4/5 no of animals); format: functional
# [31] = test system: Rattus norvegicus; assay: 8-OH-DPAT appropriate response rate in % at 0.4 mg/kg where stimulus generalization occurred(4/5 no of animals); format: functional
# [32] = test system: Rattus norvegicus; assay: 8-OH-DPAT appropriate response rate in % at 0.8 mg/kg where stimulus generalization occurred(3/4 no of animals); format: functional
# [33] = test system: Rattus norvegicus; assay: 8-OH-DPAT appropriate response of animals/min rate in % 0.8 mg/kg where stimulus generalization occurred(3/4 no of animals); format: functional
# [34] = test system: Rattus norvegicus; assay: DOM appropriate response of animals/min rate in % at 0.6 mg/Kg where stimulus generalization occurred(5/5 no of animals); format: functional
# [35] = species on record: Rattus norvegicus; assay: The dose at which the animals would show 50% responses on compound-appropriate lever; format: functional
# T1 sequence (P28564 whole entry): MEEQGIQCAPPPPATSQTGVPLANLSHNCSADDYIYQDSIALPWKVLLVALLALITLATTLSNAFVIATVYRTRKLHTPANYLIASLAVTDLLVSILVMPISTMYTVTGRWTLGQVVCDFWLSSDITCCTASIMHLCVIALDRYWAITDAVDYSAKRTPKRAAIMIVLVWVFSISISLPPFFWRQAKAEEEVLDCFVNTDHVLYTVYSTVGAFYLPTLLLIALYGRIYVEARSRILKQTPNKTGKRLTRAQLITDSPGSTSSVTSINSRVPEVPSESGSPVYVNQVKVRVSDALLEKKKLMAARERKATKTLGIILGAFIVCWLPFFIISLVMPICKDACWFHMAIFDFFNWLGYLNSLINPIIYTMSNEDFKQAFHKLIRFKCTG
smiles,measurement,setting,value
COc1cc(CC(C)N)c(OC)cc1C (configuration not stated) [DOM],Responding,[1],92%
same,Ki,[2],2.07 µM
same,Response,[3],12.8
same,Ki,[4],5.12 µM
CCCN(CCC)C1CCc2cccc(O)c2C1 (configuration not stated) [8-OH-DPAT],Response,[5],16.8
same,ED50,[6],0.08 mg/kg
same,Ki,[7],5.35 µM
same,Responding,[8],88%
same,Ki,[9],0.635 µM
COc1ccc2[nH]cc(CCN(C)C)c2c1 [MEBUFOTENIN],Ki,[10],0.35 µM
same,ED50,[11],1.43 mg/kg
same,Ki,[12],0.0078 µM
CCCN(CCC)CCc1c[nH]c2ccc(O)cc12,Ki,[7],0.45 µM
same,Ki,[10],4.3 µM
same,Ki,[12],0.0071 µM
same,Ki,[9],0.001 µM
CCCN(CCC)CCc1c[nH]c2ccc(OC)cc12,Responding,[13],67%
same,Response,[14],10.3
same,Responding,[15],21%
same,Responding,[16],49%
same,Responding,[17],inactive
same,Response,[18],12.3
same,Responding,[19],56%
same,Response,[20],5.6
same,Response,[21],4.1
same,Ki,[7],0.655 µM
same,Responding,[22],91%
same,Responding,[23],74%
same,Ki,[10],1.8 µM
same,Response,[24],5.2
same,Response,[25],13.6
same,Response,[26],13.6
same,Responding,[27],51%
same,ED50,[28],1.68 mg/kg
same,Responding,[29],81%
same,Response,[30],12
same,Responding,[31],15%
same,Responding,[32],56%
same,Response,[33],9.2
same,Ki,[12],0.004 µM
same,Response,[34],10.2
same,Ki,[9],0.0071 µM
CCCN(CCC)C1CCc2cccc(OC)c2C1 (configuration not stated),Ki,[7],3.05 µM
same,Ki,[10],> 1 µM
same,ED50,[35],0.22 mg/kg
same,Ki,[12],0.0013 µM
same,Ki,[9],0.28 µM

# Reference: ChEMBL document CHEMBL1124092 (J Med Chem, 1988)
